For 8 compounds, GI50 and TGI results are on record in PubChem BioAssay (NCI).

Where “and” joins values, the source holds several entries; their conditions need not be identical. Equal entries are not always repeated.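 Values below derive from 48-hour exposures of cells grown in 96-well plates, with endpoints linearly interpolated between the two concentrations bracketing the appropriate inhibition level. Abbreviation: GI50, concentration required for 50% inhibition of growth. The concentration for full growth arrest is given as TGI.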 A value given as a limit tells only on which side of the number the result lay.

Test systems include SR leukemia; SK-OV-3 ovarian; HL-60(TB) leukemia; NCI-H23 lung; HOP-62 NSCLC; OVCAR-8 ovarian; M14 melanoma; NCI/ADR-RES ovarian; OVCAR-3 ovarian; UO-31 renal.
Experiment in all cases: inhibition of tumour cell growth, NCI panel, 48 h

For the compound `O=C(Nc1nc(-c2ccccc2)cs1)c1cc(O)c(O)c(O)c1`, the GI50 in the assay with SR leukemia was 1.62 µM; in the assay on SK-OV-3 ovarian it was 12 µM; in the assay on HL-60(TB) leukemia it was 3.05 µM; in the assay on NCI-H23 lung, 4.36 µM; in the assay on HOP-62 NSCLC it was 5.73 µM; with OVCAR-8 ovarian, 3.38 µM. Further, the GI50 with M14 melanoma was 7.9 µM; with NCI/ADR-RES ovarian, 3.7 µM; in the assay with OVCAR-3 ovarian it was 3.39 µM; with UO-31 renal, 0.605 µM. In addition, the TGI in the assay with SR leukemia was 19.9 µM; in the assay with SK-OV-3 ovarian, 41.9 µM; in the assay on HL-60(TB) leukemia it was 10.1 µM; in the assay on NCI-H23 lung it was 51.5 µM; with HOP-62 NSCLC, 30.6 µM; in the assay on OVCAR-8 ovarian, over 100 µM. Further, the TGI in the assay on M14 melanoma is 44 µM; with NCI/ADR-RES ovarian, over 100 µM; in the assay on OVCAR-3 ovarian it was 13.6 µM; in the assay with UO-31 renal, 19.4 µM.

As to `Cc1ccc(NC(=O)N2CCCCC2)cc1[N+](=O)[O-]`, the GI50 in the assay with SR leukemia, in the assay with SK-OV-3 ovarian, in the assay on HL-60(TB) leukemia, with NCI-H23 lung, in the assay on HOP-62 NSCLC and in the assay with OVCAR-8 ovarian was over 100 µM throughout. Further, the GI50 in the assay with M14 melanoma, in the assay on NCI/ADR-RES ovarian, in the assay on OVCAR-3 ovarian and with UO-31 renal was over 100 µM each time. The TGI in the assay with SR leukemia, in the assay with SK-OV-3 ovarian, in the assay with HL-60(TB) leukemia, with NCI-H23 lung, with HOP-62 NSCLC and in the assay with OVCAR-8 ovarian was over 100 µM throughout. The TGI in the assay with M14 melanoma, with NCI/ADR-RES ovarian, in the assay with OVCAR-3 ovarian and with UO-31 renal was over 100 µM in each case.

Turning to `CCCCCCCC(=O)NS(=O)(=O)c1ccccc1`, the TGI in the assay on SR leukemia, in the assay with SK-OV-3 ovarian, in the assay on HL-60(TB) leukemia, with NCI-H23 lung, in the assay on HOP-62 NSCLC and with OVCAR-8 ovarian was over 100 µM throughout. Also, the TGI in the assay on M14 melanoma, in the assay on NCI/ADR-RES ovarian, in the assay with OVCAR-3 ovarian and in the assay with UO-31 renal was over 100 µM throughout.

Regarding `CCOc1ccc(NC(=O)c2cc3ccccc3cc2O)cc1`, the GI50 in the assay on SR leukemia was 22.8 µM; with SK-OV-3 ovarian, 27.8 µM; in the assay on HL-60(TB) leukemia, 22.3 µM; in the assay on NCI-H23 lung, 45.9 µM; in the assay on HOP-62 NSCLC, 27.7 µM; with OVCAR-8 ovarian, 47.8 µM. Besides, the GI50 with M14 melanoma was 93.4 µM; in the assay with NCI/ADR-RES ovarian, 51.3 µM; with OVCAR-3 ovarian it was over 100 µM; in the assay on UO-31 renal, 49.3 µM. Besides, the TGI with SR leukemia is over 100 µM; in the assay with SK-OV-3 ovarian, over 100 µM; in the assay with HL-60(TB) leukemia, over 100 µM; in the assay with NCI-H23 lung, over 100 µM; with HOP-62 NSCLC, 81.5 µM; in the assay on OVCAR-8 ovarian, over 100 µM. Further, the TGI with M14 melanoma, in the assay with NCI/ADR-RES ovarian, with OVCAR-3 ovarian and in the assay with UO-31 renal was over 100 µM in each case.

On to `N=C1N=C(N)S/C1=C\c1ccc2ncccc2c1`, for which the GI50 with SR leukemia, in the assay on SK-OV-3 ovarian, with HL-60(TB) leukemia, in the assay on NCI-H23 lung, with HOP-62 NSCLC and in the assay on OVCAR-8 ovarian was over 25 µM each time. Besides, the GI50 in the assay with M14 melanoma, with NCI/ADR-RES ovarian, in the assay on OVCAR-3 ovarian and in the assay with UO-31 renal was over 25 µM throughout. Also, the TGI with SR leukemia, in the assay with SK-OV-3 ovarian, in the assay on HL-60(TB) leukemia, in the assay with NCI-H23 lung, in the assay with HOP-62 NSCLC and in the assay with OVCAR-8 ovarian was over 25 µM throughout. The TGI in the assay on M14 melanoma, in the assay on NCI/ADR-RES ovarian, in the assay on OVCAR-3 ovarian and in the assay with UO-31 renal was over 25 µM throughout.

In the case of `CC(C)c1ccc(/C=N/N=C(N)N)cc1`, the GI50 in the assay on SR leukemia was 3.31 µM; in the assay on SK-OV-3 ovarian it was 3.24 µM; in the assay with HL-60(TB) leukemia it was 4.36 µM; with NCI-H23 lung, 3.96 µM; in the assay on HOP-62 NSCLC, 4.61 µM; with OVCAR-8 ovarian, 10.8 µM. Moreover, the GI50 was 2.02 µM with M14 melanoma, 6.33 µM with NCI/ADR-RES ovarian, 3.5 µM with OVCAR-3 ovarian and 10.3 µM with UO-31 renal. Besides, the TGI with SR leukemia amounted to 12.7 µM; in the assay on SK-OV-3 ovarian, 13 µM; in the assay on HL-60(TB) leukemia, 11.3 µM; in the assay with NCI-H23 lung, 19.7 µM; in the assay with HOP-62 NSCLC, 17.9 µM; with OVCAR-8 ovarian, 28.3 µM. The TGI came out at 4.2 µM in the assay with M14 melanoma, 23.2 µM in the assay on NCI/ADR-RES ovarian, 11.6 µM with OVCAR-3 ovarian and 22.3 µM in the assay on UO-31 renal.

As for `Clc1ccc(N/N=C(\c2ccccc2)c2ccccn2)nc1`, the GI50 in the assay with SR leukemia was 0.0769 µM; in the assay with HL-60(TB) leukemia, 0.0868 µM; with NCI-H23 lung it was 0.279 µM; in the assay on HOP-62 NSCLC it was 0.31 µM; with OVCAR-8 ovarian, 0.276 µM; with M14 melanoma it was 0.0879 µM. Also, the GI50 is 0.109 µM with NCI/ADR-RES ovarian, 0.0379 µM in the assay on OVCAR-3 ovarian and 0.163 µM with UO-31 renal. The TGI in the assay on SR leukemia was 3.5 µM; in the assay with SK-OV-3 ovarian, over 100 µM; in the assay with NCI-H23 lung, > 77.9 µM and 12.9 µM; with HOP-62 NSCLC, > 33.7 µM and 12.3 µM; in the assay with M14 melanoma it was 14.4 µM and 16.1 µM; in the assay with OVCAR-3 ovarian, 11.2 µM and > 28.6 µM. For the same compound, the TGI in the assay with UO-31 renal is 2.38 µM and 0.817 µM.

Turning to `O=C(Nc1cc(C(F)(F)F)cc(C(F)(F)F)c1)Nc1ccc(OCc2nnc(-c3ccc(Cl)cc3)o2)c(F)c1`, the GI50 is 2.38 µM in the assay with SR leukemia; 2.69 µM in the assay on SK-OV-3 ovarian; 2.85 µM with HL-60(TB) leukemia; 1.88 µM with NCI-H23 lung; 2.11 µM in the assay with HOP-62 NSCLC; 1.6 µM in the assay with OVCAR-8 ovarian. The GI50 in the assay with M14 melanoma was 2.72 µM; in the assay on NCI/ADR-RES ovarian it was 1.85 µM; with OVCAR-3 ovarian, 1.08 µM; with UO-31 renal it was 1.86 µM. The TGI with SR leukemia was determined as 10 µM; in the assay with SK-OV-3 ovarian it was 9.51 µM; with HL-60(TB) leukemia it was 8.21 µM; in the assay on NCI-H23 lung, 6.26 µM; in the assay on HOP-62 NSCLC, 6.12 µM; in the assay with OVCAR-8 ovarian, 5.73 µM. Also, the TGI worked out at 11.1 µM in the assay on M14 melanoma, 7.91 µM in the assay with NCI/ADR-RES ovarian, 3.92 µM in the assay on OVCAR-3 ovarian and 8.75 µM with UO-31 renal.
